# System: HMEC-1 cells
# Test: Attachment and spreading of HMEC-1 cells on IIICS
# Assay type: cell-based
# Conditions: plated on IIICS; 30 μM peptides, 125 μg/ml SST0001, 10 μg/ml MMP9 blocking antibody
# Protocol: FIGS. 8A-H. HPSE mediated the Sdc1-coupled VEGFR2 complex in endothelial cells induces angiogenesis. (FIG. 8A) Lysates from HPSE^low, HPSE^high and HMEC-1 cells are probed by immunoblotting for expression of HPSE. (FIG. 8B) HMEC-1 cells were seeded at equal density and grown in serum-free media for 24 hr in the absence or presence of 125 μg/ml of the HPSE inhibitor SST0001. After 24 hr, conditioned media were harvested, and the level of shed Sdc1 in the conditioned medium from each condition was determined by immunoblotting. (FIG. 8C) HMEC-1 cell lysate was incubated overnight with glutathione beads coated with GST or GST-S1ED. Capture of VLA-4 or VEGFR2 was detected by immunoblotting. (FIG. 8D) HMEC-1 cells were plated on IIICS for 3 hr and double stained for VLA-4 and Sdc1, VEGFR2 and Sdc1, or VLA-4 and VEGFR2. (FIG. 8E) HMEC-1 cells were treated with DMSO, VLA-4 blocking antibody P1H4, β1-integrin blocking antibody mAb13, 10 μg/ml MMP9 blocking antibody, 125 μg/ml HPSE inhibitor SST0001, Vandetanib, VEGFR2 blocking antibody, 30 μM S1ED^210-233 or 30 μM S1ED^214-240 and then plated on IIICS. Images were taken from random field with 200× magnification for counting attached and spread cells. (FIG. 8F) HMEC-1 cells were plated on IIICS in the presence of 10 μM of S1ED^210-236, S1ED^210-233, S1ED^215-240, and S1ED^214-240. […]
substance,measurement,value
"S1ED^210-233: syndecan-1 ectodomain peptide, residues 210-233 (SEQ ID NO: 4) (DFTFETSGENTAVVAVEPDRRNQS)",VLA-4 dependent spreading of HMEC-1 cells,prevented

# — patent publication US9878007B2, “Syndecan peptides and polypeptides as inhibitors of vascular endothelial growth factor receptor-2 (VEGFR2) and very late antigen-4 (VLA-4)” (Wisconsin Alumni Research Foundation, priority 2015, dated 2018)
